# Values of other authors as cited in patent publication US20230000758A1, “METHOD FOR PREVENTING SKIN AGING COMPRISING KOREAN MINT EXTRACT” (COSMAX NBT, INC., priority 2021, published 2023).
# System: catalase
# Conditions: lipopolysaccharide-stimulated mouse lung tissues
smiles,measurement,value
COc1ccc(-c2cc(=O)c3c(O)cc(O[C@@H]4O[C@H](CO[C@@H]5O[C@@H](C)[C@H](O)[C@@H](O)[C@H]5O)[C@@H](O)[C@H](O)[C@H]4O)cc3o2)cc1 [linarin],expression of the anti-oxidant enzyme catalase,markedly increased
